This is an account of results in ChEMBL document CHEMBL1150670, “Anti-HIV agents derived from the ent-kaurane diterpenoid linearol” (J Nat Prod, 2002).

The structures appear in SMILES notation. ≈ marks a conversion by molar mass, not a printed value. Calls of active or inactive are those of the source. No cut-off for these calls is given here.

One series has as its system H9. Nature of the series: Cytotoxicity against human H9 cells by Coulter counting analysis. It is filed as cell-based.
Series [1] concerns Human immunodeficiency virus 1. Nature of the series: Antiviral activity against HIV1 3B replication in human H9 cells assessed as inhibition of p24 antigen production after 4 days by ELISA. It is filed as functional, organism-based. To be noted: for EC50: Human immunodeficiency virus 1, 3B, H9, 96 h.
Series [2] in a line: Therapeutic index, ratio of IC50 for human H9 cells to EC50 for HIV1 3B replication in human H9 cells. It is filed as cell-based. Particulars: read-out: Ratio IC50/EC50.

Usually IC50 stands for the point on the concentration scale where inhibition reaches its midpoint. Lower therefore signals higher potency. In the case of `C=C1C[C@@]23C[C@@H]1CC[C@H]2[C@]1(C)CC[C@@H](OC(=O)c2ccccc2OC)[C@](C)(COC(C)=O)[C@@H]1C[C@@H]3OC(=O)c1ccccc1OC`, the IC50 with H9 came to 6 µg/mL (≈ 9.51 µM). For the same compound, the result in series [1] was inactive.

A word on the EC50: it is the midpoint of the concentration-response curve. In turn, `C=C1C[C@@]23C[C@@H]1CC[C@H]2[C@]1(C)CC[C@@H](OC(=O)c2ccc(C)cc2)[C@](C)(COC(C)=O)[C@@H]1C[C@@H]3OC(=O)c1ccc(C)cc1` registered an IC50 with H9 of 52.5 µg/mL (≈ 87.7 µM). For the same compound, the EC50 in series [1] was 1.05 µg/mL (≈ 1.75 µM). Also, in series [2], the selectivity ratio is 50.1.

Compound `CC(=O)OC[C@]1(C)[C@@H]2C[C@H](O)[C@]34C[C@H](CC[C@H]3[C@]2(C)CC[C@H]1O)[C@@]1(CO1)C4` came in with an IC50 in the series with H9 greater than 100 µg/mL.

As to `C=C1C[C@@]23C[C@@H]1CC[C@H]2[C@]1(C)CC[C@@H](OC(=O)c2ccco2)[C@](C)(COC(C)=O)[C@@H]1C[C@@H]3OC(=O)c1ccco1`, the midpoint of inhibition in the series with H9, the IC50, lay at 10.8 µg/mL (≈ 19.6 µM). In addition, the half-maximal effective concentration (EC50) in series [1] turned out to be 3.11 µg/mL (≈ 5.65 µM). Also, the selectivity ratio in series [2] amounted to 3.49.

In turn, `CC(=O)OC[C@]1(C)[C@@H]2C[C@H](O)[C@@]34CC(=O)[C@@H](CC[C@H]3[C@]2(C)CC[C@H]1O)C4` gave an IC50 in the series on H9 greater than 100 µg/mL. The result in series [1] was inactive.

On to `C=C1C[C@@]23C[C@@H]1CC[C@H]2[C@]1(C)CC[C@@H](OC(=O)c2ccc([N+](=O)[O-])cc2)[C@](C)(COC(C)=O)[C@@H]1C[C@@H]3OC(=O)c1ccc([N+](=O)[O-])cc1`, for which, in the series on H9, the IC50 is greater than 100 µg/mL. Besides, the outcome in series [1] was inactive.

Consider `CC(=O)OC[C@]1(C)[C@@H]2C[C@H](OC(C)=O)[C@]34C[C@H](CC[C@H]3[C@]2(C)CC[C@H]1OC(C)=O)[C@@]1(CO1)C4`, for which the IC50 with H9 was 20.6 µg/mL (≈ 44.5 µM). In addition, in series [1], the EC50 is 0.13 µg/mL (≈ 0.281 µM). For the same compound, the selectivity ratio in series [2] is 163.

`C=C1C[C@@]23C[C@@H]1CC[C@H]2[C@]1(C)CC[C@@H](OC(=O)c2ccc(SC)cc2)[C@](C)(COC(C)=O)[C@@H]1C[C@@H]3OC(=O)c1ccc(SC)cc1` came in with an IC50 in the series with H9 of 59.8 µg/mL (≈ 90.2 µM). Moreover, the outcome in series [1] was inactive.

In the series on H9, `C=C1C[C@@]23C[C@@H]1CC[C@H]2[C@]1(C)CC[C@@H](OC(=O)CC)[C@](C)(COC(C)=O)[C@@H]1C[C@@H]3OC(=O)CC` registered an IC50 of 16 µg/mL (≈ 33.7 µM). Also, the EC50 in series [1] was determined as 2.63 µg/mL (≈ 5.54 µM). Further, in series [2], the selectivity ratio amounted to 6.1.

As to `C=C1C[C@@]23C[C@@H]1CC[C@H]2[C@]1(C)CC[C@@H](OC(=O)c2ccc(F)cc2)[C@](C)(COC(C)=O)[C@@H]1C[C@@H]3OC(=O)c1ccc(F)cc1`, in the series on H9, the IC50 worked out at 41.1 µg/mL (≈ 67.7 µM). Further, in series [1], the outcome was inactive.

For the compound `C=C1C[C@@]23C[C@@H]1CC[C@H]2[C@]1(C)CC[C@@H](OC(=O)c2cccc([N+](=O)[O-])c2)[C@](C)(COC(C)=O)[C@@H]1C[C@@H]3OC(=O)c1cccc([N+](=O)[O-])c1`, the midpoint of inhibition with H9, the IC50, lay at 21.4 µg/mL (≈ 32.4 µM). In series [1], the result was inactive.

The compound `C=C1C[C@@]23C[C@@H]1CC[C@H]2[C@]1(C)CC[C@@H](OC(=O)c2ccccc2)[C@](C)(COC(C)=O)[C@@H]1C[C@@H]3OC(=O)c1ccccc1` returned an IC50 in the series with H9 of 2.2 µg/mL (≈ 3.85 µM). Also, in series [1], the outcome was inactive.

`C=C1C[C@@]23C[C@@H]1CC[C@H]2[C@]1(C)CC[C@@H](OC(=O)c2cnccn2)[C@](C)(COC(C)=O)[C@@H]1C[C@@H]3OC(=O)c1cnccn1` came in with an IC50 with H9 of 5.6 µg/mL (≈ 9.74 µM). The outcome in series [1] was inactive.

With `C=C1C[C@@]23C[C@@H]1CC[C@H]2[C@]1(C)CC[C@@H](OC(=O)CC)[C@](C)(COC(C)=O)[C@@H]1C[C@@H]3O`, the IC50 in the series with H9 was determined as 22.2 µg/mL (≈ 53 µM). Also, the outcome in series [1] was inactive.

Take `C=C1C[C@@]23C[C@@H]1CC[C@H]2[C@]1(C)CC[C@@H](OC(=O)c2ccc(F)cc2)[C@](C)(COC(C)=O)[C@@H]1C[C@@H]3O`: in the series on H9, 57.7 µg/mL (≈ 119 µM) corresponded to half-maximal inhibition (IC50). In addition, the result in series [1] was inactive.

In turn, `C=C1C[C@@]23C[C@@H]1CC[C@H]2[C@]1(C)CC[C@@H](O)[C@](C)(COC(C)=O)[C@@H]1C[C@@H]3O` [LINEAROL] displayed an IC50 in the series on H9 of 56.5 µg/mL (≈ 156 µM). In series [1], the result was inactive.

Take `C=C1C[C@@]23C[C@@H]1CC[C@H]2[C@]1(C)CC[C@@H](OC(=O)c2ccc(Cl)cc2)[C@](C)(COC(C)=O)[C@@H]1C[C@@H]3OC(=O)c1ccc(Cl)cc1`: the IC50 in the series with H9 came to 60.1 µg/mL (≈ 94 µM). Further, the result in series [1] was inactive.

The compound `C=C1C[C@@]23C[C@@H]1CC[C@H]2[C@]1(C)CC[C@@H](OC(=O)c2ccc4c(c2)OCO4)[C@](C)(COC(C)=O)[C@@H]1C[C@@H]3OC(=O)c1ccc2c(c1)OCO2` registered an IC50 in the series on H9 of 50.6 µg/mL (≈ 76.8 µM). Also, the EC50 in series [1] stood at 0.27 µg/mL (≈ 0.41 µM). Further, the selectivity ratio in series [2] was found to be 184.

`C=C1C[C@@]23C[C@@H]1CC[C@H]2[C@]1(C)CC[C@@H](OC(=O)c2ccccc2)[C@](C)(COC(C)=O)[C@@H]1C[C@@H]3O` yielded an IC50 with H9 of 1.8 µg/mL (≈ 3.86 µM). In series [1], the result was inactive.

Compound `C=C1C[C@@]23C[C@@H]1CC[C@H]2[C@]1(C)CC[C@@H](OC(=O)c2ccc(SC)cc2)[C@](C)(COC(C)=O)[C@@H]1C[C@@H]3O` registered an IC50 with H9 of 5.3 µg/mL (≈ 10.3 µM). In series [1], the outcome was inactive.

`C=C1C[C@@]23C[C@@H]1CC[C@H]2[C@]1(C)CC[C@@H](OC(=O)c2ccc(Cl)cc2)[C@](C)(COC(C)=O)[C@@H]1C[C@@H]3O` registered an IC50 in the series with H9 of 54 µg/mL (≈ 108 µM). Moreover, the outcome in series [1] was inactive.

In turn, `C=C1C[C@@]23C[C@@H]1CC[C@H]2[C@]1(C)CC[C@@H](OC(=O)c2ccc(C#N)cc2)[C@](C)(COC(C)=O)[C@@H]1C[C@@H]3OC(=O)c1ccc(C#N)cc1` had an IC50 in the series on H9 greater than 100 µg/mL. For the same compound, the result in series [1] was inactive.

For the compound `C=C1C[C@@]23C[C@@H]1CC[C@H]2[C@]1(C)CC[C@@H](OC(=O)c2ccc(OC)cc2)[C@](C)(COC(C)=O)[C@@H]1C[C@@H]3O`, the IC50 in the series with H9 was determined as 2 µg/mL (≈ 4.03 µM). Besides, the outcome in series [1] was inactive.

In turn, `C=C1C[C@@]23C[C@@H]1CC[C@H]2[C@]1(C)CC[C@@H](OC(=O)c2ccc4c(c2)OCO4)[C@](C)(COC(C)=O)[C@@H]1C[C@@H]3O` came in with an IC50 with H9 of 5.3 µg/mL (≈ 10.4 µM). The result in series [1] was inactive.

In the series on H9, `CC(=O)O[C@@H]1CC[C@]2(C)[C@@H](C[C@H](O)[C@]34C[C@H](CC[C@@H]23)[C@@]2(CO2)C4)[C@@]1(C)CO` registered an IC50 greater than 100 µg/mL. The outcome in series [1] was inactive.

`C=C1C[C@@]23C[C@@H]1CC[C@H]2[C@]1(C)CC[C@@H](OC(=O)c2ccc(OC)cc2)[C@](C)(COC(C)=O)[C@@H]1C[C@@H]3OC(=O)c1ccc(OC)cc1` gave an IC50 in the series with H9 of 1.9 µg/mL (≈ 3.01 µM). The EC50 in series [1] is less than 0.1 µg/mL. For the same compound, in series [2], the selectivity ratio is greater than 19.2.

On to `C=C1C[C@@]23C[C@@H]1CC[C@H]2[C@]1(C)CC[C@@H](OC(=O)c2ccccc2OC)[C@](C)(COC(C)=O)[C@@H]1C[C@@H]3O`, for which, in the series on H9, the IC50 came out at 5.4 µg/mL (≈ 10.9 µM). Also, the outcome in series [1] was inactive.
